Data reported in the supplement of paper PMC10627819.

What was measured:
Assay in all cases: fitness (endpoint OD595 vs no drug) (fraction); higher = more growth
B. subtilis 168 = test system: B. subtilis 168
How it was run: (§1)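 Bacterial growth was followed in 384-well plates seeded at OD595 0.01, with 30 µl per well, or 55 µl for S. pneumoniae, in TSB, LB Lennox or CY at 37 °C. OD595 was read every 30 min for 14 h, and each reading had the first reading subtracted as background. Fitness is the background-corrected optical density at entry into stationary phase divided by the robust mean of the no-drug control wells. This ratio is capped at 1.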

S. pneumoniae D39V = test system: S. pneumoniae D39V
How it was run: as §1

S. aureus Newman = test system: S. aureus Newman
How it was run: as §1

O=C(O)[C@H]1/C(=C/CO)O[C@@H]2CC(=O)N21 [Clavulanic acid] + C[C@H]1c2cccc(O)c2C(=O)C2=C(O)[C@]3(O)C(=O)C(C(N)=O)=C(O)[C@@H](N(C)C)[C@@H]3[C@@H](O)[C@@H]21 [Doxycycline]
Conditions | fitness
B. subtilis 168, first compound 1.5 µg/mL, partner 0.02 µg/mL | 0.862
B. subtilis 168, first compound 1.5 µg/mL, partner 0.04 µg/mL | 0.762
B. subtilis 168, first compound 3 µg/mL, partner 0.02 µg/mL | 0.852
B. subtilis 168, first compound 3 µg/mL, partner 0.04 µg/mL | 0.721
B. subtilis 168, first compound 6 µg/mL, partner 0.02 µg/mL | 0.728
B. subtilis 168, first compound 6 µg/mL, partner 0.04 µg/mL | 0.628
B. subtilis 168, first compound 6 µg/mL, partner 0.08 µg/mL | 0.375
S. pneumoniae D39V, first compound 0.5 µg/mL, partner 0.0155 µg/mL | 0.929
S. pneumoniae D39V, first compound 1 µg/mL, partner 0.0155 µg/mL | 0.892
S. pneumoniae D39V, first compound 1 µg/mL, partner 0.031 µg/mL | 0.615
S. pneumoniae D39V, first compound 1 µg/mL, partner 0.062 µg/mL | 0.429
S. pneumoniae D39V, first compound 2 µg/mL, partner 0.0155 µg/mL | 0.73
S. pneumoniae D39V, first compound 2 µg/mL, partner 0.031 µg/mL | 0.45
S. pneumoniae D39V, first compound 2 µg/mL, partner 0.062 µg/mL | 0.281

fitness, S. pneumoniae D39V, one replicate
Conditions | first compound 0.5 µg/mL | first compound 1 µg/mL | first compound 2 µg/mL
partner 0.003875 µg/mL | ≥ 1 | 0.985 | 0.9
partner 0.00775 µg/mL | 0.998 | 0.964 | 0.895

O=C(O)[C@H]1/C(=C/CO)O[C@@H]2CC(=O)N21 [Clavulanic acid] + Clc1ccc(COC(Cn2ccnc2)c2ccc(Cl)cc2Cl)c(Cl)c1 [Miconazole]
fitness, S. pneumoniae D39V
Conditions | partner 1.073 µg/mL | partner 1.25 µg/mL | partner 2.145 µg/mL | partner 2.5 µg/mL | partner 4.29 µg/mL | partner 5 µg/mL
first compound 0.5 µg/mL | ≥ 1 | 0.956 | 0.973 | 0.981 | 0.924 | 0.94
first compound 1 µg/mL | ≥ 1 | 0.876 | 0.923 | 0.873 | 0.883 | 0.838
first compound 2 µg/mL | 0.898 | 0.715 | 0.787 | 0.66 | 0.754 | 0.653

O=C(O)[C@H]1/C(=C/CO)O[C@@H]2CC(=O)N21 [Clavulanic acid] + O=C1CN(/N=C/c2ccc([N+](=O)[O-])o2)C(=O)N1 [Nitrofurantoin]
fitness, S. pneumoniae D39V
Conditions | partner 1.285 µg/mL | partner 2 µg/mL | partner 2.57 µg/mL | partner 4 µg/mL | partner 8 µg/mL
first compound 0.5 µg/mL | 0.916 | 0.92 | 0.943 | 0.878 | 0.628
first compound 1 µg/mL | 0.933 | 0.887 | 0.94 | 0.773 | 0.544
first compound 2 µg/mL | 0.883 | 0.658 | 0.874 | 0.59 | 0.358

S. pneumoniae D39V, partner 5.14 µg/mL, one replicate
Conditions | fitness
first compound 0.5 µg/mL | 0.898
first compound 1 µg/mL | 0.852
first compound 2 µg/mL | 0.817

CNC(C)C1CCC(N)C(OC2C(N)CC(N)C(OC3OCC(C)(O)C(NC)C3O)C2O)O1 (stereo unspecified) [Gentamicin] + CC1(C)S[C@@H]2[C@H](NC(=O)Cc3ccccc3)C(=O)N2[C@H]1C(=O)O [Penicillin G]
fitness, S. aureus Newman, main component drawn
Conditions | first compound 0.375 µg/mL | first compound 0.5 µg/mL | first compound 0.75 µg/mL | first compound 1 µg/mL | first compound 1.5 µg/mL | first compound 2 µg/mL
partner 0.0195 µg/mL | 0.836 | 0.901 | 0.82 | 0.937 | 0.865 | 0.98
partner 0.039 µg/mL | 0.948 | 0.897 | 0.914 | 0.939 | 0.944 | 0.96
partner 0.078 µg/mL | 0.944 | 0.842 | 0.925 | 0.886 | 0.918 | 0.924

Clc1ccc(COC(Cn2ccnc2)c2ccc(Cl)cc2Cl)c(Cl)c1 (stereo unspecified) [Miconazole] + CO[C@@]12[C@H](COC(N)=O)C3=C(C(=O)C(C)=C(N)C3=O)N1C[C@@H]1N[C@@H]12 [Mitomycin C]
fitness, S. pneumoniae D39V
Conditions | first compound 1.073 µg/mL | first compound 1.25 µg/mL | first compound 2.145 µg/mL | first compound 2.5 µg/mL | first compound 4.29 µg/mL | first compound 5 µg/mL
partner 0.001075 µg/mL | – | 0.983 | – | 0.979 | – | 0.95
partner 0.002 µg/mL | 0.882 | – | 0.883 | – | 0.779 | –
partner 0.00215 µg/mL | – | 0.88 | – | 0.898 | – | 0.907
partner 0.004 µg/mL | 0.854 | – | 0.826 | – | 0.742 | –
partner 0.0043 µg/mL | – | 0.786 | – | 0.777 | – | 0.812
partner 0.008 µg/mL | 0.718 | – | 0.748 | – | 0.64 | –

Clc1ccc(COC(Cn2ccnc2)c2ccc(Cl)cc2Cl)c(Cl)c1 (stereo unspecified) [Miconazole] + Cc1ncc([N+](=O)[O-])n1CCO [Metronidazole]
fitness, S. pneumoniae D39V
Conditions | first compound 1.073 µg/mL | first compound 1.25 µg/mL | first compound 2.145 µg/mL | first compound 2.5 µg/mL | first compound 4.29 µg/mL | first compound 5 µg/mL
partner 1.073 µg/mL | – | 0.934 | – | 0.955 | – | 0.972
partner 1.25 µg/mL | ≥ 1 | – | ≥ 1 | – | 0.99 | –
partner 2.145 µg/mL | – | 0.932 | – | 0.858 | – | 0.846
partner 2.5 µg/mL | ≥ 1 | – | ≥ 1 | – | 0.888 | –
partner 4.29 µg/mL | – | 0.905 | – | 0.884 | – | 0.94
partner 5 µg/mL | ≥ 1 | – | ≥ 1 | – | 0.984 | –

Cc1onc(-c2ccccc2)c1C(=O)N[C@@H]1C(=O)N2[C@@H]1SC(C)(C)[C@@H]2C(=O)O [Oxacillin] + CC1(C)S[C@@H]2[C@H](NC(=O)Cc3ccccc3)C(=O)N2[C@H]1C(=O)O [Penicillin G]
fitness, S. aureus Newman
Conditions | partner 0.0195 µg/mL | partner 0.039 µg/mL | partner 0.078 µg/mL
first compound 0.0156 µg/mL | 0.768 | 0.748 | 0.727
first compound 0.0312 µg/mL | 0.659 | 0.688 | 0.66
